Test results: PMC8151276, “An Integrated Approach toward NanoBRET Tracers for Analysis of GPCR Ligand Engagement” (Molecules, 2021)

Legend:
CHRM2 = biological target: T1, CHRM2 (Homo sapiens, UniProt P08172); assay: NanoBRET screen HiBiT-CHRM2 in HEK293; format: binding; conditions: CHRM2
T1 construct: purchased Promega (in-house HiBiT-GPCR construct library, NanoBRET)
T1 sequence (P08172 1-466): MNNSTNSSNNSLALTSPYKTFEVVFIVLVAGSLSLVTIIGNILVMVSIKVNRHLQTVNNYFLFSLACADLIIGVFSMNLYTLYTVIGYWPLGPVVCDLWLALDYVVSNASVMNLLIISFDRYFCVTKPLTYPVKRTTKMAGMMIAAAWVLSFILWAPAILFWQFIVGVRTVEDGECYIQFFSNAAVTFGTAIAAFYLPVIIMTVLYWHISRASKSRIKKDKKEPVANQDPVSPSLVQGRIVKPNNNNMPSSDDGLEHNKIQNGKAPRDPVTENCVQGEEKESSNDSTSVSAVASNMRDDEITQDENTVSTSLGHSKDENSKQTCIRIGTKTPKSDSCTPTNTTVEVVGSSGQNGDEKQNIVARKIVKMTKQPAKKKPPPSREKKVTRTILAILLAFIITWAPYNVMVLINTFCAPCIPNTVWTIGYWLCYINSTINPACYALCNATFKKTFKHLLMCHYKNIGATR
Procedure: (§1) Each tracer candidate was screened across the entire library of HiBiT-GPCR constructs using NanoBRET as the detection modality. As depicted in Figure 4A, the specificity of interactions was evaluated through decrease in BRET due to competitive displacement of a bound tracer by excess parental compound. Each tracer was analyzed for binding to each HiBiT-GPCR fusion in the absence and in the presence of competing parental compound. Briefly, HEK293 cells were transfected with HiBiT-GPCR constructs diluted into promoterless DNA to reduce expression and maximize translocation to the cell surface. Each tracer candidate was then screened at concentrations of 1 μM and 0.1 μM across cells expressing these fusions. Cells were treated for 1.5 h with tracer either alone or in the presence of 20 μM competing parental compound (i.e., control). BRET was measured upon addition of purified LgBiT and subsequent complementation with HiBiT genetically fused to a GPCR. The specificity of interactions was assessed through a decrease in BRET signal due to competitive displacement of the bound tracer. To further gauge the robustness of these interactions, the fold response over the control (i.e., BRETtracer/BRETcontrol) was calculated. We chose a 1.5-fold response, which translates to ≥7-fold signal over noise as the minimal threshold required to score an interaction as positive.
(§2) HiBiT-GPCR DNA constructs were diluted in 10 mM Tris pH 8 to a final concentration of 0.01 μg/μL, arrayed in 96-well plates and stored at −20 °C. For transfection, HEK293 cells were suspended in Opti-MEM (without phenol red) supplemented with 2% fetal bovine serum (Seradigm) and 100 units/mL penicillin–streptomycin (Gibco) at a final concentration of 220,000 cells/mL and dispensed into white 96-well plates at 90 μL/well. Subsequent transfections and screens were carried using an Agilent Bravo Automated Liquid Handling Platform. First, the 96-well HiBiT DNA arrays were diluted 25-fold in Opti-MEM (without serum or phenol red) to a final concentration of 0.0004 μg/μL and 20 μL of the diluted DNAs were transferred into new 96-well plates. Next, promoterless carrier DNA (1 μg/μL) was diluted 25-fold (0.04 μg/μL) and then dispensed into the diluted arrays at 20 μL/well. Following brief mixing, Viafect transfection reagent (Promega) diluted 16-fold into Opti-MEM was dispensed into the plates at 40 μL/well. After mixing by pipetting, plates were incubated for 10 min on the pipetting station deck. The DNA-transfection reagent complexes were then added to plates containing cells. To facilitate the screen, 10 μL of DNA-transfection reagent complexes were added in duplicates to the top 4 and bottom 4 rows, resulting in two identical 48-well arrays per plate. Plates with transfected cells were incubated for 18–20 h at 37 °C/5% CO2. A screen of each tracer across the entire library using two different concentrations requires duplicate plates of transfected cells. Depending on the number of tracers being screened, transfections can be scaled up using the same ratios. The next day, for each tracer, four 20× screening solutions in tracer dilution buffer (Promega) were prepared: two duplicates at final concentration of 20 μM and two duplicates at a final concentration of 2 μM. […] The four resulting solutions were diluted 4-fold in Opti-MEM without serum or phenol red to generate 5× solutions (5 µM and 0.5 µM tracer +/− 100 μM competing compound). To screen the library, a BioTek MultiFlo FX liquid dispenser was used to dispense 22.5 µL of tracer solution to the top 4 rows and 22.5 µL tracer + competing compound solution to the 4 bottom rows. Plates were briefly mixed on an orbital shaker and incubated for 1.5 h at room temperature. […] Plates were briefly mixed on an orbital shaker and incubated for 15 min to allow complementation.

ADRA2A = biological target: T2, ADRA2A (Homo sapiens, UniProt P08913); assay: NanoBRET screen HiBiT-ADRA2A in HEK293; format: binding; conditions: ADRA2A
T2 construct: purchased Promega (in-house HiBiT-GPCR construct library, NanoBRET)
T2 sequence (P08913 1-465): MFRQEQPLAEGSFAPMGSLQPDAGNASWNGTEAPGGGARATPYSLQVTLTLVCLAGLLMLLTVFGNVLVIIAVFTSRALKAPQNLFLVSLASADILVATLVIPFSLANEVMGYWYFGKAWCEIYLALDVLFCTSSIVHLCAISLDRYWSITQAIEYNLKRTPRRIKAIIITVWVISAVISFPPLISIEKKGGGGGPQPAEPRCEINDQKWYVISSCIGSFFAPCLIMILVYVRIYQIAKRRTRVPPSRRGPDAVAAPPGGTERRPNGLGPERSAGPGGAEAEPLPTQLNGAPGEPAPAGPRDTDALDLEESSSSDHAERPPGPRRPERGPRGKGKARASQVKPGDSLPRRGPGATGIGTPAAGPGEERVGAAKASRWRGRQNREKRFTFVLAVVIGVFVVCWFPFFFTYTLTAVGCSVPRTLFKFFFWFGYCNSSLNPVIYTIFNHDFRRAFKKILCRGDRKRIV
Procedure: as §1, §2

SMILES | NanoBRET Fold Response (ADRA2A; tracer 0.1μM) | NanoBRET Fold Response (ADRA2A; tracer 1μM) | NanoBRET Fold Response (CHRM2; tracer 0.1μM) | NanoBRET Fold Response (CHRM2; tracer 1μM) | other results
CN1CCN(C2=Nc3cc(Cl)ccc3Nc3ccc(CNC(=O)CCOCCOCCOCCOCCNC(=O)CCc4ccc5n4[B-](F)(F)[N+]4=C(c6ccc[nH]6)C=CC4=C5)cc32)CC1 [Clozapine-b-2-NB590] | – | – | – | – | NanoBRET Fold Response (CHRM2; 0.1μM tracer): 1.48; NanoBRET Fold Response (CHRM2; 1μM tracer): 1.99
CN1CCN(C2=Nc3cc(Cl)ccc3N(CC(=O)NCCOCCOCCOCCOCCNC(=O)CCc3ccc4n3[B-](F)(F)[N+]3=C(c5ccc[nH]5)C=CC3=C4)c3ccccc32)CC1 [Clozapine-c-2-NB590] | – | – | – | – | NanoBRET Fold Response (CHRM2; 0.1μM tracer): 0.99; NanoBRET Fold Response (CHRM2; 1μM tracer): 0.87
O=C(CCOCCOCCOCCOCCNC(=O)CCc1ccc2n1[B-](F)(F)[N+]1=C(c3ccc[nH]3)C=CC1=C2)NCCCN1CCN(C2=Nc3ccccc3Oc3ccc(Cl)cc32)CC1 [Loxapine-a-2-NB590] | 0.99 | 1.02 | 1.07 | 1.04 | –
COc1ccccc1N1CCN(CCCCN2C(=O)c3ccc(CNC(=O)CCOCCOCCOCCOCCNC(=O)CCc4ccc5n4[B-](F)(F)[N+]4=C(c6ccc[nH]6)C=CC4=C5)cc3C2=O)CC1 [NAN-190-2-NB590] | 2.17 | 3.08 | 1.13 | – | –
COc1ccccc1N1CCN(CCCCN2C(=O)c3ccc(CNC(=O)CCOCCNC(=O)c4ccc(CNC(=O)CCc5ccc6n5[B-](F)(F)[N+]5=C(c7ccc[nH]7)C=CC5=C6)cc4)cc3C2=O)CC1 [NAN-190-3-NB590] | 2.11 | 2.92 | 1.14 | 0.95 | –
O=C(CCc1ccc2n1[B-](F)(F)[N+]1=C(c3ccc[nH]3)C=CC1=C2)NCc1ccc(C(=O)NCCOCCC(=O)N[C@@H]2CC[C@@]3(O)[C@H]4Cc5ccc(O)c6c5[C@@]3(CCN4CC3CC3)[C@H]2O6)cc1 [Naltrexone-3-NB590] | 1.12 | 0.92 | 0.57 | 1.32 | –
Cc1cc2c(s1)Nc1ccccc1N=C2N1CCN(CCCNC(=O)CCOCCOCCOCCOCCNC(=O)CCc2ccc3n2[B-](F)(F)[N+]2=C(c4ccc[nH]4)C=CC2=C3)CC1 [Olanzapine-a-2-NB590] | 1.00 | 1.04 | – | 1.30 | –
O=C(CCc1ccc2n1[B-](F)(F)[N+]1=C(c3ccc[nH]3)C=CC1=C2)NCc1ccc(C(=O)NCCOCCOCCNCC(O)COc2cccc3ccccc23)cc1 (stereo not drawn) [Propranolol-3-NB590] | – | – | – | – | NanoBRET Fold Response (ADRA2A; 0.1μM): 1.04; NanoBRET Fold Response (ADRA2A; 1μM): 1.06; NanoBRET Fold Response (CHRM2; 0.1μM): 1.14; NanoBRET Fold Response (CHRM2; 1μM): 1.00
O=C(CCc1ccc2n1[B-](F)(F)[N+]1=C(c3ccc[nH]3)C=CC1=C2)NCCOCCOCCNC(=O)OCCOCCN1CCN(C2=Nc3ccccc3Sc3ccccc32)CC1 [Quetiapine-a-2-NB590] | 1.10 | 1.22 | 1.56 | 1.75 | –
